Earlier results in patent publication US20170265459A1, “PROPAGULE COATINGS” (E I DU PONT DE NEMOURS AND COMPANY, priority 2014, published 2017).

Row | Compound | water solubility at 20° C.
1 | CNC(=O)c1cc(Cl)cc(C)c1NC(=O)c1cc(Br)nn1-c1ncccc1Cl [Chlorantraniliprole, chlorantraniliprole] | about 1 milligram per liter
2 | CNC(=O)c1cc(C#N)cc(C)c1NC(=O)c1cc(Br)nn1-c1ncccc1Cl [Cyantraniliprole, cyantraniliprole] | about 14.2 milligram per liter
